The assay has as its system human mammary cancer-derived KPL-4 cells. As to the kind of experiment: Growth inhibition test on human mammary cancer-derived KPL-4 cells (WST-1). The format is cell-based. To be noted: KPL4, 72 hours culture, read-out: 50% growth inhibitory concentration (GI50). Here is the method:
Two thousand cells of human mammary cancer-derived KPL-4 cells were inoculated into each well of a 96-well microplate (manufactured by Nunc Corp.), and using Dulbecco's Modified Eagle's Medium (DMEM) (culture medium) containing 10% fetal calf serum (FCS), preculturing was performed in a 5% carbon dioxide incubator at 37° C. for 24 hours. A dimethyl sulfoxide (DMSO) solution of each test compound prepared in a concentration of 10 mmol/L was diluted with the culture medium step-by-step to a final concentration of […], and the diluted solution was added to each well. The individual wells were further cultured in the 5% carbon dioxide incubator at 37° C. for 72 hours. After completion of the culturing, 20 μL of WST-1 {4-[3-(4-Iodophenyl)-2-(4-nitrophenyl)-2H-5-tetrazolio]-1,3-benzene disulfonate} reagent mixture (manufactured by Roche Diagnostic Corp.) diluted to twice its original amount by culture medium was added to each well, and culturing was performed in the 5% carbon dioxide incubator at 37° C. for 1 hour. Using a microplate spectrophotometer (Model 550; manufactured by Bio-Rad), the absorbance of each well was measured at 450 nm and 655 nm. The cell growth inhibitory activity was expressed as 50% growth inhibitory concentration (GI50). The method for calculating the GI50 value is as follows. A value obtained by subtracting the absorbance at 655 nm from the absorbance at 450 nm (absorbance difference) was calculated for each well. The absorbance difference obtained for cells not treated with a test compound was designated as 100%, which was compared with the absorbance difference obtained for cells treated with each compound at various test concentrations, and thus the compound concentration at which cell growth was inhibited by 50% was calculated to determine the GI50 value.

Consider `O=C(Nc1ccccc1)c1c(O)cc(O)cc1COCc1ccccc1` [Compound 1, 2-(Benzyloxymethyl)-4,6-dihydroxy-N-phenylbenzamide], for which the GI50 is at most 50 µM.
The result for `O=C(NCc1ccccc1)c1c(O)cc(O)cc1COCc1ccccc1` [Compound 2, N-benzyl-2-(benzyloxymethyl)-4,6-dihydroxybenzamide] reads at most 50 µM; that for `O=C(NCCc1ccccc1)c1c(O)cc(O)cc1COCc1ccccc1` [Compound 3, 2-(Benzyloxymethyl)-4,6-dihydroxy-N-phenethylbenzamide], at most 50 µM; that for `O=C(NCc1ccccn1)c1c(O)cc(O)c(Cl)c1COCc1ccccc1` [Compound 9, 2-(Benzyloxymethyl)-3-chloro-4,6-dihydroxy-N-(pyridin-2-ylmethyl)benzamide], at most 50 µM.
The result for `COC(=O)c1c(O)cc(O)c(Br)c1COCc1ccccc1` [Compound 10, 2-(Benzyloxymethyl)-3-bromo-4,6-dihydroxybenzoic acid methyl ester] reads at most 50 µM; that for `CCc1c(O)cc(O)c(C(=O)N2CCOCC2)c1CC(=O)OC` [Compound 14, [2-Ethyl-3,5-dihydroxy-6-(morpholinocarbonyl)phenyl]acetic acid methyl ester], at most 50 µM.
The result for `CCCN(C)C(=O)c1c(O)cc(O)c(CC)c1CC(=O)OC` [Compound 15, [2-Ethyl-3,5-dihydroxy-6-(N-methyl-N-propylcarbamoyl)phenyl]acetic acid methyl ester] reads at most 50 µM; that for `CCc1c(O)cc(O)c(C(=O)N(C)CCOC)c1CC(=O)OC` [Compound 16, {2-Ethyl-3,5-dihydroxy-6-[N-(2-methoxyethyl)-N-methylcarbamoyl]phenyl}acetic acid methyl ester], at most 50 µM; that for `CCc1c(O)cc(O)c(C(=O)N2CCCCC2)c1CC(=O)OC` [Compound 17, [2-Ethyl-3,5-dihydroxy-6-(piperidinocarbonyl)phenyl]acetic acid methyl ester], at most 50 µM.
Consider `CCc1c(O)cc(O)c(C(=O)N2CCN(C)CC2)c1CC(=O)OC` [Compound 18, [2-Ethyl-3,5-dihydroxy-6-(4-methylpiperazin-1-ylcarbonyl)phenyl]acetic acid methyl ester], for which the GI50 was at most 50 µM.
Take `CCc1c(O)cc(O)c(C(=O)NCc2ccccc2)c1CCO` [Compound 19, N-benzyl-3-ethyl-4,6-dihydroxy-2-(2-hydroxyethyl)benzamide]: the GI50 was at most 50 µM.
The result for `CCc1c(O)cc(O)c(C(=O)OC)c1CC(=O)OC` [Compound 23, 3-Ethyl-4,6-dihydroxy-2-(methoxycarbonylmethyl)benzoic acid methyl ester] reads at most 50 µM.

The values are drawn from patent US7781485B2, “Hsp90 family protein inhibitors” (Kyowa Hakko Kirin Co., Ltd., priority 2004, dated 2010).
